Target: SHP2 (Homo sapiens (Human), UniProt Q06124)
Test: SHP2 allosteric inhibition assay (DiFMUP prompt fluorescence)
Type: biochemical
Details: 0.2 nM SHP2 activated with 0.5 μM Activating Peptide 1 or 2, substrate DiFMUP
From the text: Without wishing to be bound by theory, SHP2 is allosterically activated through binding of bis-tyrosyl-phosphorylated peptides to its Src Homology 2 (SH2) domains. The latter activation step leads to the release of the auto-inhibitory interface of SHP2, which in turn renders the SHP2 protein tyrosine phosphatase (PTP) active and available for substrate recognition and reaction catalysis. The catalytic activity of SHP2 was monitored using the surrogate substrate DiFMUP in a prompt fluorescence assay format.
The phosphatase reactions were performed at room temperature in 96-well black polystyrene plate, flat bottom, non-binding surface (Corning, Cat #3650) using a final reaction volume of 100 μL and the following assay buffer conditions: 50 mM HEPES, pH 7.2, 100 mM NaCl, 0.5 mM EDTA, 0.05% P-20, 1 mM DTT.
The inhibition of SHP2 by compounds of the invention (concentrations varying from 0.00005-10 μM) was monitored using an assay in which 0.2 nM of SHP2 was incubated with 0.5 μM of Activating Peptide 1 (sequence: H2N-LN(pY)IDLDLV(dPEG8)LST(pY)ASINFQK-amide) or Activating Peptide 2 (sequence: H2N-LN(pY)AQLWHA(dPEG8)LTI(pY)ATIRRF-amide). After 30-60-minutes incubation at 25° C., the surrogate substrate DiFMUP (Invitrogen, Cat #D6567) was added to the reaction and activity was determined by a kinetic read using a microplate reader (Envision, Perkin-Elmer or Spectramax M5, Molecular Devices). The excitation and emission wavelengths were 340 nm and 450 nm, respectively. Initial rates were determined from a linear fit of the data, and the inhibitor dose response curves were analyzed using normalized IC50 regression curve fitting with control based normalization.

SHP2, sequence (Q06124 whole entry): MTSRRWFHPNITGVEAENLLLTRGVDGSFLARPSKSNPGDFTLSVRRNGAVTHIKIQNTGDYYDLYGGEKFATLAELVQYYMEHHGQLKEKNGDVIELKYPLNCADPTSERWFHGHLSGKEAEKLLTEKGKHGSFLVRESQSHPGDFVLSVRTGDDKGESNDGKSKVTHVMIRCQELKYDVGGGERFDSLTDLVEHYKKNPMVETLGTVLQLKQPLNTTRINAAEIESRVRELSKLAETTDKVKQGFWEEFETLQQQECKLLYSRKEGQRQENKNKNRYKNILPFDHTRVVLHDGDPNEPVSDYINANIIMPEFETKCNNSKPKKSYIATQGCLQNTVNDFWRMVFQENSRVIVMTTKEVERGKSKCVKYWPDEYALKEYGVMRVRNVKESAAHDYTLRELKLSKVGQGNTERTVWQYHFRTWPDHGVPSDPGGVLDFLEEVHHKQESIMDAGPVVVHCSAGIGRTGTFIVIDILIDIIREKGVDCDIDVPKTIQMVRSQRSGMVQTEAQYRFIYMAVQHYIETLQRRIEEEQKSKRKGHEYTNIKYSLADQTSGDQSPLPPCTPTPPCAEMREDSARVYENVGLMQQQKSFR

| Structure (SMILES) | IC50 (Table 2, class symbols) [nM] | IC50 (Table 1) [nM] |
| --- | --- | --- |
| NC(=O)CNc1ncc(Sc2ccnc(N)c2Cl)c2nccn12 [Compound 66, 2-({8-[(2-amino-3-chloropyridin-4-yl)sulfanyl]imidazo[1,2-c]pyrimidin-5-yl}amino)acetamide] | > 500 |  |
| Nc1nccc(Sc2cnc(NCCO)n3ccnc23)c1Cl [Compound 73] | > 500 |  |
| Cc1nc(N2CCC3(CC2)CO[C@@H](C)[C@H]3N)n2ccnc2c1-c1cccc2cn[nH]c12 [Compound 36, (3S,4S)-8-[8-(2H-indazol-7-yl)-7-methylimidazo[1,2-c]pyrimidin-5-yl]-3-methyl-2-oxa-8-azaspiro[4.5]decan-4-amine] | ≤ 50 |  |
| C[C@H](O)CNc1ncc(Sc2ccnc(N)c2Cl)c2nccn12 [Compound 74] | > 500 |  |
| Nc1nccc(Sc2cnc(N3CCC[C@H]3CO)n3ccnc23)c1Cl [Compound 67] | > 500 |  |
| C[C@@H]1OCC2(CCN(c3ncc(-c4ccnc5[nH]ccc45)c4nccn34)CC2)[C@@H]1N [Compound 59, (3S,4S)-3-methyl-8-(8-{1H-pyrrolo[2,3-b]pyridin-4-yl}imidazo[1,2-c]pyrimidin-5-yl)-2-oxa-8-azaspiro[4.5]decan-4-amine] | > 500 |  |
| Cc1nc(N2CCC3(CC2)CO[C@@H](C)[C@H]3N)n2ccnc2c1-c1ccc2c(c1Cl)OCC2 [Compound 44, (3S,4S)-8-[8-(7-chloro-2,3-dihydro-1-benzofuran-6-yl)-7-methylimidazo[1,2-c]pyrimidin-5-yl]-3-methyl-2-oxa-8-azaspiro[4.5]decan-4-amine] | ≤ 50 |  |
| C[C@@H]1OCC2(CCN(c3ncc(Sc4ccnc(N)c4Cl)c4ncnn34)CC2)[C@@H]1N [Compound 4 (Example 4)] |  | 29 |
| Cc1nc(N2CCC3(CC2)CO[C@@H](C)[C@H]3N)n2ccnc2c1-c1ccc2cn[nH]c2c1 [Compound 30, (3S,4S)-8-[8-(2H-indazol-6-yl)-7-methylimidazo[1,2-c]pyrimidin-5-yl]-3-methyl-2-oxa-8-azaspiro[4.5]decan-4-amine] | ≤ 50 |  |
| C[C@@H]1OCC2(CCN(c3ncc(-c4ccnc(N)c4)c4nccn34)CC2)[C@@H]1N [Compound 58, (3S,4S)-8-[8-(2-aminopyridin-4-yl)imidazo[1,2-c]pyrimidin-5-yl]-3-methyl-2-oxa-8-azaspiro[4.5]decan-4-amine] | > 500 |  |
| Nc1nccc(Sc2cnc(N3CCOCC3)n3ccnc23)c1Cl [Compound 68] | > 500 |  |
| Cc1nc(N2CCC3(CC2)CO[C@@H](C)[C@H]3N)n2ccnc2c1-c1cc2ccccc2n1C [Compound 40, (3S,4S)-3-methyl-8-[7-methyl-8-(1-methyl-1H-indol-2-yl)imidazo[1,2-c]pyrimidin-5-yl]-2-oxa-8-azaspiro[4.5]decan-4-amine] | ≤ 50 |  |
| Cc1nc(N2CCC3(CC2)CO[C@@H](C)[C@H]3N)n2ccnc2c1-c1ccn2ccnc2c1 [Compound 51, (3S,4S)-8-(8-imidazo[1,2-a]pyridin-7-yl-7-methyl-imidazo[1,2-c]pyrimidin-5-yl)-3-methyl-2-oxa-8-azaspiro[4.5]decan-4-amine] | 50 to 500 |  |
| CC1(N)CCN(c2ncc(Sc3ccnc(N)c3Cl)c3nccn23)CC1 [Compound 2 (Example 2)] |  | 120 |
| NCCC1CN(c2ncc(Sc3ccnc(N)c3Cl)c3nccn23)C1 [Compound 22, 4-({5-[3-(2-aminoethyl)azetidin-1-yl]imidazo[1,2-c]pyrimidin-8-yl}sulfanyl)-3-chloropyridin-2-amine] | > 500 |  |
| CC1(N)CCN(c2ncc(Sc3ccnc(N)c3Cl)c3nccn23)CC1 [Compound 2, 4-{[5-(4-amino-4-methylpiperidin-1-yl)imidazo[1,2-c]pyrimidin-8-yl]sulfanyl}-3-chloropyridin-2-amine] | 50 to 500 |  |
| Cc1nc(N2CCC3(CC2)CO[C@@H](C)[C@H]3N)n2ccnc2c1-c1ccc2c(cnn2C)c1 [Compound 34, (3S,4S)-3-methyl-8-[7-methyl-8-(1-methyl-1H-indazol-5-yl)imidazo[1,2-c]pyrimidin-5-yl]-2-oxa-8-azaspiro[4.5]decan-4-amine] | ≤ 50 |  |

Reference: patent US11673901B2, “Polycyclic compounds as allosteric SHP2 inhibitors” (Revolution Medicines, Inc., priority 2017, dated 2023)
